# “Also recorded” adds a separate entry of the source. Where two headings read alike, the source gives them in different places.
# Assays:
# melanoma cell line A375 = test system: melanoma cell line A375; set-up: method as in doi:10.1016/j.phytol.2021.07.008; settings: A375, MTT method; cited from earlier work
# [1] = molecular target: T1, bovine serum albumin (BSA) (Bos taurus, UniProt P02769); assay: Fluorescence quenching titration of BSA; assay type: binding
# T1 construct: bovine serum albumin (BSA) stock solutions of lyophilized protein
# T1 sequence (P02769 25-607): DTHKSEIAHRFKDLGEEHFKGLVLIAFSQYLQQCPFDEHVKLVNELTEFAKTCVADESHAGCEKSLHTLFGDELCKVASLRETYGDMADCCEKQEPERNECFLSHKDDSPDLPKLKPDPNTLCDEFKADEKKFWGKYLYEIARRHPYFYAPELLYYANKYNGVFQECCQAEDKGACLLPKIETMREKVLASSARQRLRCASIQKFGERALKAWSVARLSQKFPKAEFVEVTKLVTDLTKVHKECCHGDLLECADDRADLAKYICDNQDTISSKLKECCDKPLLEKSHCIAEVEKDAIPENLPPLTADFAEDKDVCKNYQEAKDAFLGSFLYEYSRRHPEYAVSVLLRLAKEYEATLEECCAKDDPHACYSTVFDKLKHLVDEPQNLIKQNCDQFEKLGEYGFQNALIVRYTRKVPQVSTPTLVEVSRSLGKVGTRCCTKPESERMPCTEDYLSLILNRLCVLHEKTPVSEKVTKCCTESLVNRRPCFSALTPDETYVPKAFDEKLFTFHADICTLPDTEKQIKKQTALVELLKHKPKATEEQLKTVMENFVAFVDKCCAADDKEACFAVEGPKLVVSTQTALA
# Protocol: The steady-state fluorescence emission spectra of a solution of 0.5–1.0 μM BSA (in HEPES buffer) were recorded between 310 and 500 nm with λexc = 295 nm after additions of the complexes’ solutions directly to the cuvette (optical path of 1.0 cm). The UV–vis spectrum of each sample was used to make corrections and minimize the inner filter and reabsorption interferences.[22] Solutions with the same concentration of complex and no BSA were recorded and used as blank spectra.
# Data were analyzed by fitting a second-order equation, which accounts for both static and dynamic quenching [drawing 2] 2 where I0 and I are the fluorescence intensities in the absence and presence of quencher (Q), and KS and KD are the static and dynamic quenching constants, respectively.
# The Stern–Volmer equation was used for low quencher concentrations to determine the Stern–Volmer quenching constant (KSV), a measure of the quenching strength [drawing 3] 3
# [2] = test system: human keratinocytes HaCaT; assay: MTT assay in nontumorigenic HaCaT cells; assay type: cell-based; settings: for IC50: HaCaT, 48 h incubation, MTT colorimetric method; for Selectivity index (SI): IC50 HaCaT/IC50 A375
# Protocol: (§1) Cell culture media and antibiotics were obtained from Gibco (Thermo Fisher Scientific). Human malignant melanoma A375 cells (ATCC CRL-1619TM) and human keratinocytes HaCaT (CLS 300493) were cultured in DMEM-Glutamax supplemented with 10% fetal bovine serum (FBS), hereafter designated as complete medium. For human keratinocytes, 100 IU/mL of penicillin and 100 μg/mL of streptomycin (Gibco, Thermo Fisher Scientific) were also used. The cell lines were kept at 37 °C with a 5% CO2 atmosphere. The maintenance of cell cultures was performed every 2–3 days until the cells reached a confluency of about 80%.
# The MTT assay was used to assess cell viability in the presence of increasing concentrations of selected compounds. Briefly, HaCaT cells were plated at a concentration of 5 × 10^4 cells/mL in 96-well plates (200 μL/well) and cultured for 24 h in the culture conditions described above. Then, cells were incubated with free ligands and metal complexes at concentrations ranging from 5 to 30 μM. Negative controls were cells maintained in complete culture medium. The culture medium was discarded after 48 h, cells were washed with PBS (2 times), and then 50 μL of MTT at 0.5 mg/mL in incomplete medium was added to all wells. After 2–3 h of incubation period at 37 °C, 100 μL of DMSO was added to each well to solubilize the formazan crystals, and absorbance was measured at 570 nm using a microplate reader Model 680 (Bio-Rad, CA). Two independent experiments were carried out, with six replicates per condition.
# (§2) GraphPad Prism8 (GraphPad Software, San Diego, CA) was used to analyze cell proliferation, and values were plotted and fit a standard log dose–response curve to generate IC50 values.
# [3] = test system: Human malignant melanoma A375 cells; assay: Antiproliferative activity in A375 cells, CellTiter-Glo 3D luminescent method; assay type: cell-based
# Protocol: as §1
# The CellTiter-Glo 3D kit (Promega) was used to assess the viability of the A375 cells in the presence or absence (negative control) of increasing concentrations of the free ligands and complexes. The kit detects adenosine triphosphate, which is proportional to the number of viable cells, therefore allowing the assessment of cell proliferation. First, A375 cells were plated at a concentration of 5 × 10^4 cells/mL in 96-well plates (200 μL/well) and cultured for 24 h in the culture conditions described above. Then, cells were incubated with the free ligands (1–100 μM), Zn(II) complexes (1 to 80 μM), and Cu(II) complexes (1–20 μM) in 96-well plates. After an incubation period of 48 h, 100 μL of each well was discarded. Then, 40 μL of CellTiter-Glo 3D reagent was added into each well and the contents were mixed vigorously for 15 min to induce cell lysis at room temperature. Finally, the luminescence was measured using a Varioskan Lux multimode plate reader (Thermo Scientific). Values presented are mean ± standard deviation (SD) of two independent biological experiments with 4 technical replicates per condition.
# as §2
# [4] = Thermodynamic solubility in water at pH 7.40; assay type: physicochemical; settings: pH 7.40, 10 mM HEPES, 37 °C, 24 h incubation
# Protocol: Thermodynamic solubility (S) of the free ligands and complexes was determined for the saturated solutions in water at pH 7.40 in 10 mM HEPES at 37.0 ± 0.2 °C. The concentration of the compounds was determined by UV–vis spectrophotometry using stock solutions with known concentrations dissolved in 100% DMSO, 50%, and 25% (v/v) DMSO/buffered aqueous solutions for the calibration.
# [5] = Distribution coefficient, shake-flask n-octanol/buffered aqueous solution pH 7.40; assay type: physicochemical; settings: n-octanol/water partitioning, pH 7.40, 25 °C; for logD at 3 h: n-octanol/buffered aqueous solution, pH 7.4, read-out: log D7.4
# Protocol: The distribution coefficients (D7.4) of the compounds were determined by the shake-flask method in n-octanol/buffered aqueous solution at pH 7.40 (25.0 ± 0.2 °C). The ligand precursors and the complexes were dissolved in 10 mM HEPES presaturated with n-octanol. The aqueous solution and n-octanol (1:1 ratio) were gently mixed with a 360° vertical rotation (∼20 rpm) for 3 h; then, the samples were centrifuged at 3000 rpm for 5 min. Two phases were separated, and their UV–vis spectra were recorded. The D7.4 value was calculated as follows [drawing 1] 1
# [6] = Overall stability (formation) constants of Cu(II) complexes by UV–vis spectrophotometric titrations; assay type: physicochemical; settings: I = 0.1 M KCl, t = 25.0 °C; for log β (CuL2): bis-ligand Cu(II) complex; for log β (CuL): mono-ligand Cu(II) complex
# Protocol: (§3) The UV–vis titrations were performed with a 0.10 M carbonate-free KOH solution using a Metrohm 665 Dosimat buret and an Orion 710A pH-meter equipped with a Metrohm combined electrode (type 6.0234.100). […] The average water ionization constant (pKw) is 13.76 ± 0.05. The path length was 1 cm, and the temperature was 25.0 ± 0.1 °C. An ionic strength of 0.10 M KCl was used to keep the activity coefficients constant. The samples were deoxygenated by bubbling argon through the system for 10 min. Spectrophotometric titrations were carried out using an Agilent Cary 8454 diode array spectrophotometer (Santa Clara, CA) in water on samples containing the ligands at 60 μM, in the pH range from 1.5 to 11.5 in the absence or in the presence of 1, 0.5, or 0.25 equiv of Cu(II) and Zn(II) ions, using 10.00 mL of sample volumes. Proton dissociation constants (Ka) of the ligand precursors, as well as stoichiometry and overall stability constants (β) of the metal complexes, were calculated by the computer program PSEQUAD.[20]
# [7] = Proton dissociation constants by UV–vis spectrophotometric titrations; assay type: physicochemical; settings: water with 0.10 M KCl, I = 0.1 M KCl, t = 25.0 °C
# Protocol: as §3
# [8] = Overall stability (formation) constants of Zn(II) complexes by UV–vis spectrophotometric titrations; assay type: physicochemical; settings: I = 0.1 M KCl, t = 25.0 °C; for log β (ZnL2): bis-ligand Zn(II) complex; for log β (ZnL): mono-ligand Zn(II) complex
# Protocol: as §3
# [9] = Stability by 1H NMR in DMSO-d6 or 30% DMSO-d6/H2O; assay type: physicochemical; settings: 1 mM
# Protocol: A Bruker Avance III HD Ascend 500 Plus instrument (Billerica, MA) was used for NMR spectroscopic titrations and time-dependent studies applying a WATERGATE water suppression pulse scheme in the presence of 10% (v/v) D2O/H2O, and the sodium trimethylsilylpropanesulfonate (DSS) standard was added to samples as the internal reference. ^1H NMR titrations were carried out for the ligand precursors in the presence of 0.1 M KCl. For free ligands and complexes’ stability measurements, ^1H NMR spectra were recorded in DMSO-d6 or 30% (v/v) DMSO-d6/H2O.
# [10] = Stability in aqueous HEPES buffer (5% DMSO) by UV–vis; assay type: physicochemical; settings: HEPES 10 mM pH 7.4 with 5% (v/v) DMSO; 100–135 μM; 24 h
# Protocol: Stock solutions of each complex were freshly prepared in DMSO and diluted with HEPES buffer (10 mM, pH 7.4), ensuring that the organic solvent content was less than 5% (v/v). The samples were monitored by UV–vis absorption spectrophotometry for 6 consecutive hours, and a final measurement was done after 24 h.
# A375 cells = assay: Guava ViaCount assay by flow cytometry; assay type: cell-based, human; settings: A375, 48 h; Zn(L2)2 at 15 μM, Cu2(L2)4 at 12 μM
# Protocol: For the Guava ViaCount assay, A375 cells were plated at a concentration of 8 × 10^4 cells/mL in 24-well plates (1 mL/well) and cultured for 24 h in the culture conditions described above.[23] Cells were then incubated with Zn(L2)2 and Cu2(L2)4 at concentrations of 15 and 12 μM, respectively. The positive control, dacarbazine (DTIC), was tested at 70 μM. Cells in the presence of complete culture medium constituted the negative control group. After an incubation period of 48 h, cell culture supernatants were collected, and adherent cells were detached using TrypLEExpress (Invitrogen). Detached cells were then added to supernatants, and the wells were washed using PBS with 2% FBS to recover any remaining cells. The recovered suspension was centrifuged for 5 min at 700 g. The supernatants were discarded, and cells were suspended in PBS with 2% FBS. Then, on a 96-well plate, 20 μL of cell suspension was incubated with 180 μL of Guava ViaCount reagent (Merck Millipore, Darmstadt, Germany) for 5 min at r.t. Using a Guava EasyCyte 5HT Flow cytometer (Guava Technologies, Inc., Hayward, CA), data were collected and analyzed with the ViaCount software module with an acquisition of 10,000 events per sample. GraphPad Prism8 was used to analyze cell proliferation (GraphPad Software, San Diego, CA). One experiment was carried out, with three replicates per condition.
# [11] = quinolinium nitrogen, read-out: pKa (NqH+)
# [12] = Homo sapiens, A-375, A375, 48 h incubation
structure (smiles),measurement,setting,value
N.N.[Cl][Pt][Cl] [Cisplatin],IC50,melanoma cell line A375,10.9 ± 1.3 µM
[Cu+2].[O-]c1cccc2ccc(/C=N/CCCN3CCOCC3)nc12.[O-]c1cccc2ccc(/C=N/CCCN3CCOCC3)nc12 [Cu(L3)2],Stern–Volmer quenching constant KSV,"[1]; fit at low quencher concentrations, HEPES pH 7.4",(2.20 ± 0.07) × 10^5 M^–1
same,% quenching,"[1]; molar ratio complex:BSA = 10, λexc = 295 nm",48%
same,IC50,[2],8.1 ± 0.2 µM
same,Selectivity index (SI),[2],1.2
same,IC50,"[3]; A375, 48 h incubation",6.7 ± 0.2 µM
same,Thermodynamic solubility S7.4,[4],1821 µM
same,log D7.4,[5],>1.5
Oc1cccc2ccc(/C=N/CCN3CCCCC3)nc12 [L1],log β (CuL2),[6],15.60 ± 0.02
same,log β (CuL),[6],8.36 ± 0.01
same,pKa,"[7]; phenol OH, read-out: pKa (OH)",8.77 ± 0.03
same,pKa,[7]; [11],2.8 ± 0.03
same,IC50,[2]; Homo sapiens,> 30 µM
same,IC50,[3]; [12],15.2 ± 0.2 µM
same,logD at 3 h,[5],0.63
same,log β (ZnL2),[8],14.42 ± 0.01
same,log β (ZnL),[8],6.90 ± 0.03
Oc1cccc2ccc(/C=N/CCN3CCOCC3)nc12 [L2],log β (CuL2),[6],15.77 ± 0.03
same,log β (CuL),[6],7.98 ± 0.02
same,pKa,"[7]; phenol OH, read-out: pKa (OH)",8.84 ± 0.03
same,pKa,[7]; [11],2.83 ± 0.03
same,IC50,[2]; Homo sapiens,> 30 µM
same,IC50,[3]; [12],15.9 ± 0.1 µM
same,logD at 3 h,[5],0.64
same,log β (ZnL2),[8],14.32 ± 0.02
same,log β (ZnL),[8],6.86 ± 0.04
Oc1cccc2ccc(/C=N/CCCN3CCOCC3)nc12 [L3],log β (CuL2),[6],15.57 ± 0.01
same,log β (CuL),[6],8.34 ± 0.01
same,pKa,"[7]; phenol OH, read-out: pKa (OH)",8.78 ± 0.03
same,pKa,[7]; [11],2.77 ± 0.03
same,IC50,[2]; Homo sapiens,> 30 µM
same,IC50,[3]; [12],25.8 ± 0.3 µM
same,logD at 3 h,[5],0.76
same,log β (ZnL2),[8],13.68 ± 0.04
same,log β (ZnL),[8],6.87 ± 0.01
[O-]c1cccc2ccc(/C=N/CCN3CCCCC3)nc12.[O-]c1cccc2ccc(/C=N/CCN3CCCCC3)nc12.[Zn+2] [Zn(L1)2],period the 1H NMR spectra remained unchanged,[9],8 days
same,IC50,[2],22.3 ± 0.7 µM
same,Selectivity index (SI),[2],2.5
same,IC50,"[3]; A375, 48 h incubation",9.1 ± 1.5 µM
same,Thermodynamic solubility S7.4,[4],694 µM
same,log D7.4,[5],>1.5
same,stability in aqueous media,[10],did not show signs of decomposition
[O-]c1cccc2ccc(/C=N/CCN3CCOCC3)nc12.[O-]c1cccc2ccc(/C=N/CCN3CCOCC3)nc12.[Zn+2] [Zn(L2)2],IC50,[2],24.4 ± 0.6 µM
same,Selectivity index (SI),[2],2.4
same,IC50,"[3]; A375, 48 h incubation",10.3 ± 1.6 µM
same,Thermodynamic solubility S7.4,[4],1674 µM
same,log D7.4,[5],+0.86 ± 0.09
same,stability in aqueous media,[10],did not show signs of decomposition
same,percentage of dead and apoptotic cells,A375 cells,10%
[O-]c1cccc2ccc(/C=N/CCCN3CCOCC3)nc12.[O-]c1cccc2ccc(/C=N/CCCN3CCOCC3)nc12.[Zn+2] [Zn(L3)2],IC50,[2],26.3 ± 0.7 µM
same,Selectivity index (SI),[2],2.8
same,IC50,"[3]; A375, 48 h incubation",9.3 ± 1.1 µM
same,Thermodynamic solubility S7.4,[4],87 µM
same,log D7.4,[5],>1.5
same,stability in aqueous media,[10],suggests hydrolysis; also recorded: significant hydrolysis
